Values of other authors in patent US20210128676A1, “METHOD OF TREATING PATIENTS WITH H[…] TYPE 1 AND LOW MEAN ARTERIAL PRESSURE” (Mallinckrodt Hospital Products IP Unlimited Company, priority 2019, published 2021).
Positions of bridges follow the written chain, without caps; N, C: chain ends. Residues, ends and D or L forms follow the SMILES beside them.

Conditions: in vivo

Row | SMILES | half-life [h] | duration of action [min]
1 | NCCCC[C@H](NC(=O)[C@@H]1CCCN1C(=O)[C@@H]1CSSC[C@H](NC(=O)CNC(=O)CNC(=O)CN)C(=O)N[C@@H](Cc2ccc(O)cc2)C(=O)N[C@@H](Cc2ccccc2)C(=O)N[C@@H](CCC(N)=O)C(=O)N[C@@H](CC(N)=O)C(=O)N1)C(=O)NCC(N)=O [Terlipressin, N—[N—(N-glycylglycyl)glycyl]-8-L-lysinevasopressin] (H-GGGCYFQNCPKG-NH2; disulfide 4-9 (inferred)) | 6 | 
2 | NC(=O)CC[C@@H]1NC(=O)[C@H](Cc2ccccc2)NC(=O)[C@H](Cc2ccc(O)cc2)NC(=O)[C@@H](N)CSSC[C@@H](C(=O)N2CCC[C@H]2C(=O)N[C@@H](CCCN=C(N)N)C(=O)NCC(N)=O)NC(=O)[C@H](CC(N)=O)NC1=O [vasopressin] | 0.1 | 30 to 60
